The values below come from US5691311A (Biogen, Inc., priority 1995, dated 1997).

One data set concerns APTT. Put plainly: Systemic anticoagulant effect (APTT) of antithrombotic agents. The data set is classed as in vivo, baboon. The settings on record: dose not given. An excerpt:
We also tested the effects of a variety of other agents on template bleeding time in the baboon, as well as on systemic anticoagulant effects (as measured by APTT).

The subject of a further data set is hemostasis. Kind of data set: Template bleeding time. The data set is classed as in vivo, baboon.
The test system of data set [1] is platelet-dependent thrombosis. The settings on record: collagen-coated surfaces, reported values; cited from earlier work.
In data set [2] the target is T1, human α-thrombin (Homo sapiens, UniProt P00734).
T1 construct: proteolysis of the B-chain of α-thrombin; human α-thrombin-catalyzed hydrolysis of Spectrozyme TH
Kind of data set: Cleavage of Hirulogs by thrombin (chromogenic and HPLC assays). The conditions noted are these: turnover rate of Hirulog hydrolysis by thrombin. Format: biochemical. The protocol: Aliquots (0.975 ml) of the reaction mixtures were removed at various times and mixed in a cuvette with 0.025 ml Spectrozyme TH (11 μM final concentration), a chromogenic substrate. The initial rate of reaction was determined and, based on control mixtures containing thrombin in the absence of Hirulog, the % inhibition was calculated.
An alternate method employed reverse-phase HPLC separation of aliquots from a Hirulog/thrombin reaction mixture. In this assay we added human α-thrombin (0.25 μM final concentrations) to a reaction vessel containing one of the above Hirulogs (12.5 μM final concentration). Aliquots (50 μl) were removed both prior to and at various times following the addition of thrombin. The aliquots were either flash frozen of injected directly onto the HPLC column. The HPLC system employed an Applied Biosystems Liquid Chromatography System equipped with an Aquapore C, column (0.46×10 cm). The column was equilibrated in 70% solvent A (0.1% TFA in water) and 30% solvent B (0.085% TFA/70% acetonitrile) and developed with a linear gradient of from 30 to 50% solvent B over 30 minutes at a flow rate of 1 ml/minute. The effluent stream was monitored at 214 nm. Peptide concentrations were determined by measurement of peak heights.
Both of the above-described assays allow determination of the rate of Hirulog hydrolysis by thrombin (expressed in M/min) and turnover rate (kcat; expressed in min^-1).

Data set [3] has as its target T1, human α-thrombin. Put plainly: Thrombin-catalyzed hydrolysis of Spectrozyme TH. Format: biochemical. The settings on record: for Ki: method of Example 9, Spectrozyme TH; for inhibitory activity versus linker length: FIG. 6. The protocol: The thrombin-catalyzed rate was monitored in a Cary 19 spectrophotometer at 405 nm and recorded continuously as a function of time. Kinetics were performed at room temperature (25°±1°C.) in a 0.05M Tris, pH 7.5, 0.1M NaCl buffer.
For a typical enzyme reaction, 1.0 ml of buffer was added to both the sample and reference cuvettes. […] Immediately following addition of substrate, the contents of the sample cuvette were mixed by use of a plastic pipette. The reaction was monitored spectrophotometrically for 5-15 minutes.
Initial rate velocities at each substrate concentration were expressed as moles Spectrozyme TH hydrolyzed/sec/mole thrombin. This was determined during the initial linear phase of the reaction (≤15% total hydrolysis of substrate) by measuring the slope of the hydrolytic reaction. Lineweaver-Burke plots were constructed accordingly, by plotting the inverse of the initial velocity against the inverse of the substrate concentration.

The subject of data set [4] is human α-thrombin. Kind of data set: human α-thrombin in 20 mM Tris-HCl pH 7.4 containing 0.1M NaCl.
Data set [5] relates to human α-thrombin (1.6 nM chromogenic assay; 0.25 μM HPLC assay). The data set is described as above.

Like-named read-outs stand apart in the source and are kept apart here.

One may read the ED50 as the dose that gives a 50% effect, or the effect in half of the subjects. With `CC1CNc2c(cccc2S(=O)(=O)N[C@@H](CCCNC(=N)N)C(=O)N2CC[C@@H](C)C[C@@H]2C(=O)O)C1` (some centres unmarked) [Argipidine (MD805), argatroban (argipidine)], the “APTT (% control)” value in the data set on APTT was greater than 900 % control. In the data set on hemostasis (in vivo), the “Bleeding Time” value was greater than 30 min. For the same compound, the ED50 in data set [1] was 550 nmol/kg/min.

Turning to `N=C(N)c1ccccc1` [Benzamidine, benzamidine], the “APTT (% control)” value in the data set on APTT was 757.6 % control. Moreover, in the data set with hemostasis (dose not given), the “Bleeding Time” value turned out to be 10 min. In addition, the 50% effective dose (ED50) in data set [1] is 3000 nmol/kg/min.

As a reminder, the kcat is the maximal rate divided by the concentration of active sites. One may read the Ki as a measure of affinity in units of concentration, obtained from inhibition or displacement. As to `CC[C@H](C)[C@H](NC(=O)[C@H](CCC(=O)O)NC(=O)[C@H](CCC(=O)O)NC(=O)[C@H](Cc1ccccc1)NC(=O)[C@H](CC(=O)O)NC(=O)CNC(=O)[C@H](CC(N)=O)NC(=O)CNC(=O)CNC(=O)CNC(=O)CNC(=O)CNC(=O)CN(C)C(=O)[C@H](CCCNC(=N)N)NC(=O)[C@@H]1CCCN1C(=O)[C@H](N)Cc1ccccc1)C(=O)N1CCC[C@H]1C(=O)N[C@@H](CCC(=O)O)C(=O)N[C@@H](CCC(=O)O)C(=O)N[C@@H](Cc1ccc(O)cc1)C(=O)N[C@@H](CC(C)C)C(=O)O` [Hirulog-10], the kcat at human α-thrombin [2] came out at 0.167 s⁻¹. In addition, the “inhibition of thrombin-catalyzed hydrolysis of Spectrozyme TH (in words)” value against human α-thrombin [3] was “poor inhibitors”. This compound also gave a Ki at human α-thrombin [3] (Ki) greater than 2000 nM.

On to `CC[C@H](C)[C@H](NC(=O)[C@H](CCC(=O)O)NC(=O)[C@H](CCC(=O)O)NC(=O)[C@H](Cc1ccccc1)NC(=O)[C@H](CC(=O)O)NC(=O)CNC(=O)[C@H](CC(N)=O)NC(=O)CNC(=O)CNC(=O)[C@@H]1CCCN1C(=O)[C@H](CCCNC(=N)N)NC(=O)[C@@H]1CCCN1C(=O)[C@H](N)Cc1ccccc1)C(=O)N1CCC[C@H]1C(=O)N[C@@H](CCC(=O)O)C(=O)N[C@@H](CCC(=O)O)C(=O)N[C@@H](Cc1ccc(O)cc1)C(=O)N[C@@H](CC(C)C)C(=O)O` [Hirulog-13], for which the reduction of activity result at human α-thrombin [3] (18 Å linker length, versus Hirulogs-8, -15, -16) is listed as “more than 10 fold”.

As for `CC[C@H](C)[C@H](NC(=O)[C@H](CCC(=O)O)NC(=O)[C@H](CCC(=O)O)NC(=O)[C@H](Cc1ccccc1)NC(=O)[C@H](CC(=O)O)NC(=O)CNC(=O)[C@H](CC(N)=O)NC(=O)CNC(=O)CNC(=O)CNC(=O)CNC(=O)CNC(=O)CNC(=O)[C@@H]1CCCN1C(=O)[C@H](CCCNC(=N)N)NC(=O)[C@@H]1CCCN1C(=O)[C@H](N)Cc1ccccc1)C(=O)N1CCC[C@H]1C(=O)N[C@@H](CCC(=O)O)C(=O)N[C@@H](CCC(=O)O)C(=O)N[C@@H](Cc1ccc(O)cc1)C(=O)N[C@@H](CC(C)C)C(=O)O` [Hirulog-15], at human α-thrombin [3], the “inhibitory activity versus linker length” value is on record as “comparable inhibitory activities”.

Turning to `CC[C@H](C)[C@H](NC(=O)[C@H](CCC(=O)O)NC(=O)[C@H](CCC(=O)O)NC(=O)[C@H](Cc1ccccc1)NC(=O)[C@H](CC(=O)O)NC(=O)CNC(=O)[C@H](CC(N)=O)NC(=O)CNC(=O)CNC(=O)CNC(=O)CNC(=O)CNC(=O)CNC(=O)CNC(=O)CNC(=O)[C@@H]1CCCN1C(=O)[C@H](CCCNC(=N)N)NC(=O)[C@@H]1CCCN1C(=O)[C@H](N)Cc1ccccc1)C(=O)N1CCC[C@H]1C(=O)N[C@@H](CCC(=O)O)C(=O)N[C@@H](CCC(=O)O)C(=O)N[C@@H](Cc1ccc(O)cc1)C(=O)N[C@@H](CC(C)C)C(=O)O` [Hirulog-16], at human α-thrombin [3], the “inhibitory activity versus linker length” value is recorded as “comparable inhibitory activities”.

`CC[C@H](C)[C@H](NC(=O)[C@H](CCC(=O)O)NC(=O)[C@H](CCC(=O)O)NC(=O)[C@H](Cc1ccccc1)NC(=O)[C@H](CC(=O)O)NC(=O)CNC(=O)[C@H](CC(N)=O)NC(=O)CNC(=O)CNC(=O)CNC(=O)CNC(=O)CNC(=O)C[C@H](CCCNC(=N)N)NC(=O)[C@@H]1CCCN1C(=O)[C@H](N)Cc1ccccc1)C(=O)N1CCC[C@H]1C(=O)N[C@@H](CCC(=O)O)C(=O)N[C@@H](CCC(=O)O)C(=O)N[C@@H](Cc1ccc(O)cc1)C(=O)N[C@@H](CC(C)C)C(=O)O` [Hirulog-18a] registered an inhibitory constant (Ki) on human α-thrombin [3] (Ki) of 7.4 nM.

In the case of `CC[C@H](C)[C@H](NC(=O)[C@H](CCC(=O)O)NC(=O)[C@H](CCC(=O)O)NC(=O)[C@H](Cc1ccccc1)NC(=O)[C@H](CC(=O)O)NC(=O)CNC(=O)[C@H](CC(N)=O)NC(=O)CNC(=O)CNC(=O)CNC(=O)CNC(=O)[C@@H]1CCCN1C(=O)C[C@H](CCCNC(=N)N)NC(=O)[C@@H]1CCCN1C(=O)[C@H](N)Cc1ccccc1)C(=O)N1CCC[C@H]1C(=O)N[C@@H](CCC(=O)O)C(=O)N[C@@H](CCC(=O)O)C(=O)N[C@@H](Cc1ccc(O)cc1)C(=O)N[C@@H](CC(C)C)C(=O)O` [Hirulog-18b], the affinity at human α-thrombin [3] (Ki), expressed as Ki, was 4.6 nM.

At human α-thrombin [3] (Ki), `CC[C@H](C)[C@H](NC(=O)[C@H](CCC(=O)O)NC(=O)[C@H](CCC(=O)O)NC(=O)[C@H](Cc1ccccc1)NC(=O)[C@H](CC(=O)O)NC(=O)CNC(=O)[C@H](CC(N)=O)NC(=O)CNC(=O)CNC(=O)CNC(=O)CNC(=O)[C@@H](NC(=O)C[C@H](CCCNC(=N)N)NC(=O)[C@@H]1CCCN1C(=O)[C@H](N)Cc1ccccc1)C(C)C)C(=O)N1CCC[C@H]1C(=O)N[C@@H](CCC(=O)O)C(=O)N[C@@H](CCC(=O)O)C(=O)N[C@@H](Cc1ccc(O)cc1)C(=O)N[C@@H](CC(C)C)C(=O)O` [Hirulog-18c] had an inhibition constant (Ki) of 205 nM.

Turning to `CC[C@H](C)[C@H](NC(=O)[C@H](CCC(=O)O)NC(=O)[C@H](CCC(=O)O)NC(=O)[C@H](Cc1ccccc1)NC(=O)[C@H](CC(=O)O)NC(=O)CNC(=O)[C@H](CC(N)=O)NC(=O)CNC(=O)CNC(=O)CNC(=O)CNC(=O)CNC[C@H](CCCNC(=N)N)NC(=O)[C@@H]1CCCN1C(=O)[C@H](N)Cc1ccccc1)C(=O)N1CCC[C@H]1C(=O)N[C@@H](CCC(=O)O)C(=O)N[C@@H](CCC(=O)O)C(=O)N[C@@H](Cc1ccc(O)cc1)C(=O)N[C@@H](CC(C)C)C(=O)O` [Hirulog-19], at human α-thrombin [3] (Ki), the affinity, expressed as Ki, was 20 nM.

With `CC[C@H](C)[C@H](NC(=O)[C@H](CCC(=O)O)NC(=O)[C@H](CCC(=O)O)NC(=O)[C@H](Cc1ccccc1)NC(=O)[C@H](CC(=O)O)NC(=O)CNC(=O)[C@H](CC(N)=O)NC(=O)CNC(=O)CNC(=O)CNC(=O)CNC(=O)CNC(=O)[C@H](CCCNC(=N)N)NC(=O)[C@@H]1CCCN1C(=O)[C@H](N)Cc1ccccc1)C(=O)N1CCC[C@H]1C(=O)N[C@@H](CCC(=O)O)C(=O)N[C@@H](CCC(=O)O)C(=O)N[C@@H](Cc1ccc(O)cc1)C(=O)N[C@@H](CC(C)C)C(=O)O` [Hirulog-32], the kcat on human α-thrombin [2] turned out to be 8.92 s⁻¹. Moreover, the “inhibition of thrombin-catalyzed hydrolysis of Spectrozyme TH (in words)” value against human α-thrombin [3] is on record as “poor inhibitors”. Moreover, the Ki on human α-thrombin [3] (Ki) was greater than 2000 nM.

Take `NC(N)=NCCC[C@H](NC(=O)[C@@H]1CCCN1C(=O)[C@H](N)Cc1ccccc1)C(=O)CCl` [PPACK, D-Phe-Pro-Arg-CHCl2]: in the data set with APTT, the “APTT (% control)” value is 287.9 % control. The “Bleeding Time” value with hemostasis (dose not given) is recorded as 12 min. For the same compound, in data set [1], the ED50 is 75 nmol/kg/min.

Turning to “H-(D-Phe)-Pro-(β-homoarginine)-Pro-(Gly)4 -Asn-Gly-Asp-Phe-Glu-Glu-Ile-Pro-Glu-Glu-Tyr-Leu-OH”, the not cleaved result in the data set with human α-thrombin [4] is “kcat <0.01 min^-1; resistant to thrombin cleavage”.

As for “H-(D-Phe)-Pro-Arg-(Gly)5 -Asn-Gly-Asp-Phe-Glu-Glu-Ile-Pro-Glu-Glu-Tyr-Leu-OH”, the cleaved bond entry in data set [5] was “Arg-Gly”.

For the compound “H-(D-Phe)-Pro-Arg-Pro-(Gly)4 -Asn-Gly-Asp-Phe-Glu-Glu-Ile-Pro-Glu-Glu-Tyr-Leu-OH”, the cleaved bond result in data set [5] was “Arg-Pro, minor”.

For “H-(D-Phe)-Pro-Arg-Sar-(Gly)5 -Asn-Gly-Asp-Phe-Glu-Glu-Ile-Pro-Glu-Glu-Tyr-Leu-OH”, in data set [5], the cleaved bond entry was “Arg-Sar”.

For the compound “N-acetyl-Gly-Asp-phe-Leu-Ala-Glu-(Gly)3 -Val-Arg-Pro-(Gly)4 -Asn-Gly-Asp-Phe-Glu-Glu-Ile-Pro-Glu-Glu-Tyr-Leu-OH”, the cleaved bond result in data set [5] was “Arg-Pro, minor”.

In the case of “N-acetyl-Gly-Asp-phe-Leu-Ala-Glu-(Gly)3 -Val-Arg-Pro-(Gly)4 -Asn-Gly-Asp-Phe-Glu-Glu-Ile-Pro-Glu-Glu-Tyr-Leu-OH [Hirulog-33]”, the kcat at human α-thrombin [2] amounted to 0.000933 s⁻¹. Besides, at human α-thrombin [3] (read-out: Ki), the Ki was 3.6 nM.
